Measured values from PubChem BioAssay (NCI).
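Tested at 5 concentrations; 48 h exposure; 96-well plates; endpoints linearly interpolated, else capped at highest concentration. The concentration for full growth arrest is given as TGI.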

What was measured:
Assay in all cases: growth of human tumour cells (NCI), 48 h
[1] = system: NCI-H226 lung
[2] = system: KM12 colon
[3] = system: HCT-15 colon
[4] = system: CCRF-CEM leukemia
[5] = system: SK-MEL-2 melanoma
[6] = system: SK-OV-3 ovarian
[7] = system: IGROV1 ovarian
[8] = system: SK-MEL-28 melanoma
[9] = system: DLD-1 colon
[10] = system: HOP-62 NSCLC
[11] = system: NCI-H23 lung
[12] = system: MOLT-4 leukemia
[13] = system: OVCAR-5 ovarian
[14] = system: A549 NSCLC
[15] = system: RPMI-8226 leukemia
[16] = system: NCI-H522 lung
[17] = system: U251 CNS
[18] = system: EKVX NSCLC
[19] = system: SNB-75 CNS
[20] = system: SF-295 CNS

| Structure (SMILES) | TGI [1] [µM] | TGI [2] [µM] | TGI [3] [µM] | TGI [4] [µM] | TGI [5] [µM] | TGI [6] [µM] | TGI [7] [µM] | TGI [8] [µM] | TGI [9] [µM] | TGI [10] [µM] | TGI [11] [µM] | TGI [12] [µM] | TGI [13] [µM] | TGI [14] [µM] | TGI [15] [µM] | TGI [16] [µM] | TGI [17] [µM] | TGI [18] [µM] | TGI [19] [µM] | TGI [20] [µM] |
| --- | --- | --- | --- | --- | --- | --- | --- | --- | --- | --- | --- | --- | --- | --- | --- | --- | --- | --- | --- | --- |
| COc1ccc(C[C@H](N)C(=O)N2C[C@H](CO)C[C@H](n3cnc4c(N(C)C)ncnc43)C2)cc1 | > 100 | > 100 | > 100 | > 100 | > 100 | > 100 | > 100 | > 100 | > 100 | > 100 | > 100 | > 100 | > 100 | > 100 | > 100 | > 100 | > 100 | > 100 |  |  |
| O=C1c2ccccc2C(=O)c2c1ccc1c2N=C(c2ccc(F)cc2)CC(c2ccc(Cl)c(Cl)c2)N1 (stereo unspecified) | 65.6 | 19.4 | 19.8 | 17.7 | 29.3 | 48.9 | 23.4 | 36 | 31.8 | 58.2 | 33.4 | > 100 | 28 | 47.6 | 19.3 | 20.4 | 24.7 | 20.3 | 40.2 | 28.6 |
| CSc1nc(NC2OCC(O)C(O)C2O)c(N)c(=O)n1C (stereo unspecified) | > 100 | > 100 | > 100 | > 100 | > 100 | > 100 | > 100 | > 100 | > 100 | > 100 | > 100 | > 100 | > 100 | > 100 | > 100 | > 100 | > 100 | > 100 | > 100 | > 100 |
| C[C@@H]1C[C@]2(C[C@@H](C)[C@H]3C(C[C@@]4(C)CCC[C@@H]5C6=C[C@H](CCC34C)OC6=CC(=O)OC5(C)C)O2)OC1=O (stereo partly specified) |  | > 51.5 | > 51.5 | > 51.5 | > 51.5 | > 51.5 | > 51.5 |  | > 51.5 | > 51.5 | > 51.5 | > 51.5 | > 51.5 | > 51.5 | > 51.5 | > 51.5 | > 51.5 | > 51.5 | 47.5 | > 51.5 |
